According to paper PMC12140054, “Small glycomimetic antagonists of the cytomegalovirus glycoprotein UL141 prevent binding to TRAIL death receptor” (The Journal of Biological Chemistry, 2025):
Where two headings read alike, the source gives them in different places.

How the values were obtained:
A549 cells = assay: Cytotoxicity on A549 cells (data not shown); format: cell-based
VERO-E6 cells = assay: Cytotoxicity on VERO-E6 cells (data not shown); format: cell-based
[1] = tested on: human foreskin fibroblasts HFF-BJ (ATCC CRL-2522 cells); assay: MTT cytotoxicity / cell viability assay; format: cell-based; settings: 0.1 to 50 μM, 72 h
Excerpt: Cell viability as visualized by fold change of formazan-positive cells normalized to the untreated control and DMSO. Viability reduced below 40% represents the cytotoxic zone, below the dotted line in each plot. The number of biological replicates is indicated.
Human foreskin fibroblasts (HFF), a type of primary fibroblast derived from neonatal foreskin tissue, were chosen for this bioassay due to their distinct advantages in studies involving HCMV. For instance, the HHF cells provide a relevant and effective platform due to their unique susceptibility to HCMV infection, ability to mimic human immune responses, and relevance to clinical scenarios. […] HFF cells were incubated with each compound at concentrations ranging from 0.1 to 50 μM and any possible cytotoxic effect was monitored for 72 h. Tested compounds were dissolved in dimethyl sulfoxide (DMSO). […] The cytotoxic effect (CTE) is represented here as the concentration that causes a reduction of more than 40% in the number of viable cells.
Cells were seeded in a 96-well plate at a density of 1 × 10^4 cells per well for the measurement of cytotoxicity of the compounds (without UVA irradiation). […] Cells after treatment were incubated for […]. Untreated cells were considered negative control, and DMSO-treated cells (at appropriate concentration) were considered vehicle control. The classical MTT assay (3-(4,5-dimethyl thiazolyl-2)-2,5-diphenyltetrazolium bromide) ([68]) was used to measure cellular metabolic activity as an indicator of cell viability, proliferation, and cytotoxicity. Briefly, 0.5 mg/ml MTT solution was dispensed in each well of the 96-well plate and incubated for 4 h. Afterward, the MTT solution was removed and 200 μl of 100% DMSO was added to each well and the plate was placed on a microplate shaker for 5 min to dissolve the formazan granules. The absorbance was measured at 550 nm using a spectrophotometer. DMSO and MTT were purchased from Thermo Fisher Scientific. The darker the solution, the greater the number of viable, metabolically active cells. All experimental compounds were measured using at least 2 to 3 replicates for each and the averaged values from three independent experiments (n = 3) are presented. Cell viability was visualized by fold change of formazan-positive cells normalized to the untreated control and DMSO. Viability reduced below 40% represents the cytotoxic zone. All evaluations were performed using GraphPad Prism 9.5.0 (GraphPad Software, LLC), if other software was not explicitly mentioned.

HCMV UL141 [2] = molecular target: T1, HCMV UL141 (Human cytomegalovirus, UniProt Q6RJQ3); assay: biochemical; format: binding; settings: for Rmax / koff / kon: UL141 immobilized, substance as analyte
T1 construct: we expressed and purified the full-length recombinant UL141 (amino acids 30–300); made in house
Protocol: (§1) To prepare HCMV UL141 for binding studies, biotinylation was performed using the BiotinTag Micro Biotinylation Kit (Sigma-Aldrich). Purified UL141 protein (50 μg in 50 μl) was mixed with 50 μl of BiotinTag reaction buffer provided in the kit. Sulfo-NHS-Biotin reagent was freshly prepared by dissolving the vial contents in 1 ml of sterile water. A calculated volume of the biotin reagent was added to achieve a 20:1 M excess of biotin to protein. The reaction mixture was incubated for 30 min at room temperature with gentle mixing to ensure efficient labeling. Following incubation, unreacted biotin was removed using the desalting column included in the kit. The biotinylated UL141 protein was eluted in 50 mM Hepes, pH 7.5, 150 mM NaCl. Biotin incorporation was verified using a colorimetric biotin quantification assay (e.g., HABA assay). The biotinylated protein was then quantified spectrophotometrically using a NanoDrop instrument and concentrated to the desired level for Biacore or ELISA binding studies. The biotinylated protein was stored at 4 °C for short-term use or −80 °C for long-term storage to maintain stability.
(§2) The sensor surface of an SA chip (Cytiva) was preconditioned with HBS-EP buffer (10 mM Hepes, 150 mM NaCl, 3 mM EDTA, 0.005% Tween-20) to stabilize the baseline and remove any loosely bound streptavidin. Before use, the buffer was filtered through a 0.2 μm polystyrene filter and degassed under vacuum for 10 min to eliminate air bubbles. Biotinylated HCMV UL141 was immobilized on the SA chip, maintaining biotinylation at 0.5 to 1.5 mol per mole of protein. Excess biotin was removed via gel filtration. UL141 was injected at 30 μl/min, achieving maximum immobilization (4000–6000 RU), followed by washing with running buffer. Residual unbound proteins were optionally removed with a 2 M NaCl pulse. To ensure optimal SPR signal detection, which depends on the analyte mass bound to the ligand, relatively high amounts of ligand were immobilized on the sensor chip to achieve a significant response signal upon binding of the small compound. […] Regeneration of the chip surface, when necessary, was performed using 5 mM NaOH. Control injections of zero concentrations and duplicate injections of selected concentrations were included to validate surface regeneration. […]

UL141 = settings: cited from earlier work; for Kd: UL141 (ectodomain) in solution
HCMV UL141 [3] = molecular target: T2, HCMV UL141 (Human cytomegalovirus, UniProt Q6RJQ3); assay: biochemical; format: binding
T2 construct: we expressed and purified the full-length recombinant UL141 (amino acids 30–300); made in house
T2 sequence (Q6RJQ3 whole entry, looked up): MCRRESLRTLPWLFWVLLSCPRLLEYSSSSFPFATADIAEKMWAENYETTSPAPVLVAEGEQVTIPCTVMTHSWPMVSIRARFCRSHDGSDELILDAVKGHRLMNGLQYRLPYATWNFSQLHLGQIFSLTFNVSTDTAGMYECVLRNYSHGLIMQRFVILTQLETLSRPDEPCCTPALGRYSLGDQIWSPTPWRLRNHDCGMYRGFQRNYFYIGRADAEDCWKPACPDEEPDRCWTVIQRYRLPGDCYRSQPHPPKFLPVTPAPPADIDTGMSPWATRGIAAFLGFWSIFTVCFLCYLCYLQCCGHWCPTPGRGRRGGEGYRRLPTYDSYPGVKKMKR
Protocol: as §1, §2

[4] = molecular target: TRAIL-R2-Fc (Homo sapiens) (UniProt O14763); assay: SPR; settings: cited from earlier work
TRAIL-R2 (Homo sapiens) = TRAIL-R2 (Homo sapiens) (UniProt O14763); assay: SPR; settings: cited from earlier work
[5] = UL141 immobilized (ligand), substance in solution (analyte), 1:1 Langmuir model, 25 °C
[6] = 1:1 Langmuir model, listed as cmp 15
[7] = 1:1 Langmuir model, listed as cmp 20
[8] = TRAIL-R2-Fc immobilized, ref ([19])
[9] = TRAIL-R2-Fc immobilized, UL141 in solution, ref ([19])
[10] = UL141-Fc immobilized, TRAIL-R2 in solution, ref ([17])

Row | Molecule | concentration at which cytotoxicity with apoptotic properties begins (A549 cells) [ng/mL] | concentration at which cytotoxicity with apoptotic properties begins (VERO-E6 cells) [ng/mL] | cytotoxicity (in words) [1] | Kd (HCMV UL141 [2]; [5]) [µM] | Rmax (HCMV UL141 [2]) | koff (HCMV UL141 [2]; 1:1 Langmuir model) [s⁻¹] | kon (HCMV UL141 [2]; 1:1 Langmuir model) [M⁻¹ s⁻¹] | also measured
1 | CCCCCCCCCCCCCCO[C@@H]1O[C@H](CO)[C@@H](O)[C@H](O)[C@H]1O [Compound 1] | ≥ 5000 | ≥ 5000 |  |  |  |  |  | 
2 | CCCCCCCCCCCCCCO[C@@H]1O[C@H](CO)[C@H](O)[C@H](O)[C@H]1O [Compound 3] | ≥ 5000 | ≥ 5000 |  |  |  |  |  | 
3 | CCCCCCCCCCCCCCO[C@H]1O[C@H](CO)[C@@H](O)[C@H](O)[C@@H]1O [Compound 5] | ≥ 5000 | ≥ 5000 | unfavorable level of cytotoxicity |  |  |  |  | 
4 | CCCCCCCCCCCCN1C[C@H](O)[C@H](O)[C@@H]1CO [Compound 9] | ≥ 5000 | ≥ 5000 | unfavorable level of cytotoxicity |  |  |  |  | 
5 | C[C@H](O)[C@H]1[C@@H](O)[C@@H](O)CN1Cc1ccc(I)cc1 [Compound 14, (2S,3R,4S)-2-((S)-1-hydroxyethyl)-1-(4-iodobenzyl)pyrrolidine-3,4-diol] |  |  | no cytotoxicity was detected | 24 | 24 | 0.153 | 6370 | Kd (HCMV UL141 [2]; binding to UL141, SPR): 24 µM; kon (HCMV UL141 [2]; 1:1 Langmuir model, listed as cmp 14): (0.63 ± 0.002) × 10^4 M^−1s^−1
6 | CC(O)C1C(O)C(O)CN1Cc1ccccc1 (stereo not shown) [Compound 15] |  |  | no cytotoxicity was detected | 200 | 27 | 0.117 | 586 | Kd (HCMV UL141 [2]; binding to UL141, SPR): 199 µM; koff (HCMV UL141 [2]; [6]): (1.17 ± 0.004) × 10^−1 s^−1; kon (HCMV UL141 [2]; [6]): (0.06 ± 0.002) × 10^4 M^−1s^−1
7 | CC(O)C1C(O)C(O)CN1Cc1ccc(I)cc1 (stereo not shown) [Compound 17] |  |  | no cytotoxicity was detected | 20.3 | 20 | 0.0508 | 2500 | koff (HCMV UL141 [2]; 1:1 Langmuir model, listed as cmp 17): (0.51 ± 0.001) × 10^−1 s^−1
8 | CC1C(O)C(O)CN1Cc1ccc(I)cc1 (stereo not shown) [Compound 20] |  |  | no cytotoxicity was detected | 29.1 | 21 | 0.0879 | 3020 | Kd (HCMV UL141 [2]; binding to UL141, SPR): 29 µM; koff (HCMV UL141 [2]; [7]): (0.88 ± 0.015) × 10^−1 s^−1; kon (HCMV UL141 [2]; [7]): (0.30 ± 0.007) × 10^4 M^−1s^−1
9 | TRAIL-R2-Fc: TRAIL-R2 recombinantly prepared as an Fc-fusion protein |  |  |  |  |  |  |  | Kd (UL141; [8]): 0.00596 µM; koff (UL141; [9]): 7.21e-05 s⁻¹; kon (UL141; [9]): 12100 M⁻¹ s⁻¹
10 | TRAIL-R2: recombinant human TRAIL death receptor 2 ectodomain (amino acids 58–184), positive control in SPR |  |  |  |  |  |  |  | Rmax (HCMV UL141 [3]; UL141 immobilized, substance as analyte): 872; Kd (HCMV UL141 [3]; full-length UL141 and TRAIL-R2, SPR, read-out: affinity (KD)): 0.00599 µM; Kd (UL141; [8]): 0.00596 µM; koff (UL141; [10]): 0.00564 s⁻¹; kon (UL141; [10]): 264000 M⁻¹ s⁻¹
11 | UL141 ECD (from UniProt Q6RJQ3) |  |  |  |  |  |  |  | Kd [4]: 0.00596 µM
12 | UL141-Fc (from UniProt Q6RJQ3) |  |  |  |  |  |  |  | Kd (TRAIL-R2 (Homo sapiens)): 0.0214 µM
